Reference: US7129356B2, “Farnesyl transferase inhibiting 4-substituted quinoline and quinazoline derivatives” (Janssen Pharmaceutica N.V., priority 2000, dated 2006)

Compound | melting point
O=c1cc(Oc2ccccc2)c2cc(C(c3ccc(Cl)cc3)n3ccnc3)ccc2[nH]1 (racemic) [Example B1, (±)-6-[(4-chlorophenyl)-1H-imidazol-1-ylmethyl]-4-phenoxy-2(1H)-quinolinone] | 233.3 °C
Cn1cncc1C(O)(c1ccc(Cl)cc1)c1ccc2c(c1)c(CCc1cccc(Cl)c1)cc(=O)n2C (stereo not shown) [Example B2, 4-[2-(3-chlorophenyl)ethyl]-6-[(4-chlorophenyl)hydroxy(1-methyl-1H-imidazol-5-yl)methyl]-1-methyl-2(1H)-quinolinone] | 190 °C
Cn1cncc1C(N)(c1ccc(Cl)cc1)c1ccc2c(c1)c(CCc1cccc(Cl)c1)cc(=O)n2C (stereo not shown) [Example B3, 6-[amino(4-chlorophenyl)(1-methyl-1H-imidazol-5-yl)methyl]-4-[2-(3-chlorophenyl)ethyl]-1-methyl-2(1H)-quinolinone] | 165 °C
CCOC(=O)c1c(Oc2cccc(Cl)c2)c2cc(C(c3ccc(Cl)cc3)c3cnc(-c4ccccc4)[nH]3)ccc2[nH]c1=O (stereo not shown) [Example B4 F2, 4-(3-chlorophenoxy)-6-[(4-chlorophenyl)(2-phenyl-1H-imidazol-5-yl)methyl]-1,2-dihydro-2-oxo-3-quinolinecarboxylic acid ethyl ester] | 189 °C
O=c1[nH]c2ccc(C(c3ccc(Cl)cc3)n3ccnc3-c3ccccc3)cc2c(Oc2cccc(Cl)c2)c1CO (stereo not shown) [Example B5, 4-(3-chlorophenoxy)-6-[(4-chlorophenyl)(2-phenyl-1H-imidazol-1-yl)methyl]-3-(hydroxymethyl)-2(1H)-quinolinone] | 246 °C
CN(C(=O)c1cc(=O)n(C)c2ccc(C(O)(c3ccc(Cl)cc3)c3cncn3C)cc12)c1cccc(Cl)c1 (stereo not shown) [Example B11, N-(3-chlorophenyl)-6-[(4-chlorophenyl)hydroxy(1-methyl-1H-imidazol-5-yl)methyl]-1,2-dihydro-N,1-dimethyl-2-oxo-4-quinolinecarboxamide] | 218 °C
Cc1cccc(N(C)C(=O)c2cc(=O)n(C)c3ccc(C(O)(c4ccc(Cl)cc4)c4cncn4C)cc23)c1 (stereo not shown) [Example B12, 6-[(4-chlorophenyl)hydroxy(1-methyl-1H-imidazol-5-yl)methyl]-1,2-dihydro-N,1-dimethyl-N-(3-methylphenyl)-2-oxo-4-quinolinecarboxamide] | 185 °C
Cn1c(=O)cc(CCc2cccc(Cl)c2)c2cc(C(O)(c3ccc(Cl)cc3)c3cccnc3)ccc21 (stereo not shown) [Example B14, 4-[2-(3-chlorophenyl)ethyl]-6-[(4-chlorophenyl)hydroxy-3-pyridinylmethyl]-1-methyl-2(1H)-quinolinone] | 115 °C
Cn1c(=O)cc(CCc2cccc(Cl)c2)c2cc(C(N)(c3ccc(Cl)cc3)c3cccnc3)ccc21 (stereo not shown) [Example B15, 6-[amino(4-chlorophenyl)-3-pyridinylmethyl]-4-[2-(3-chlorophenyl)ethyl]-1-methyl-2(1H)-quinolinone] | 90 °C
Cn1cnnc1C(O)(c1ccc(Cl)cc1)c1ccc2c(c1)c(CCc1cccc(Cl)c1)cc(=O)n2C (stereo not shown) [Example B20, 4-[2-(3-chlorophenyl)ethyl]-6-[(4-chlorophenyl)hydroxy(4-methyl-4H-1,2,4-triazol-3-yl)methyl]-1-methyl-2(1H)-quinolinone] | 200 °C
